Square brackets hold non-standard residues; d marks the D form. Ends that are not written are not given here. pS = N[C@@H](COP(=O)(O)O)C(=O)O
Key:
[1] = HA binding assay (pulldown of fluorescein-labeled peptides, Langmuir isotherm fit); conditions: for Nmax (maximum monolayer surface concentration) / KA (binding affinity for HA): fit of Langmuir equation; for KA (binding affinity for HA): fluorescein-labeled peptide 0-100 μM, 0.3 mg HA nanocrystals
Experimental: Fluorescein-labeled DSS-containing peptides of various lengths were subjected to pulldown assays as follows: Samples containing varying concentrations of fluorescein-labeled peptide (0-100 μM) and a fixed amount (0.3 mg) of HA nanocrystals with a specific surface area of 100 m^2/g (Berkeley Advanced Biomaterials, Berkeley, Calif.) were prepared. Measurements were taken of the absorbance of the labeled peptide at 488 nm (the peak absorbance of the fluorescein label) before and after exposure to the HA. The amount of peptide bound was calculated by comparing the ratio of the final (Af) and initial (Ai) absorbances to the initial concentration (C0) [Cbound=(Af/Ai)C0]. Plots were generated of the amount of peptide bound per meter squared of HA surface area vs. concentration of unbound peptide at equilibrium. The resulting isotherms were fit to the Langmuir isotherm, x/m=(KANmaxCeq)/(1+KACeq), where x/m represents the molar amount of peptide bound per unit of HA surface area, KA is the affinity constant of the peptide for the HA surface (L/Mol), Nmax is the maximum surface concentration (mol/m^2), and Ceq is the molar concentration of unbound peptide at equilibrium (Calis et al. (1995) Pharm Res., 12: 1072-1076).
In order to quantitatively assess the strength of the DSS-HA interaction as well as to determine the roles of peptide length and sequence on binding, fluorescein-labeled, DSS-containing peptides of various lengths were subjected to pulldown assays as described in “Materials and Methods.”
The experimental data were fit to the Langmuir isotherm, which describes the binding of molecules to surfaces with the conditions that (1) all binding sites have the same affinity for the peptide and (2) the peptide will form a monolayer on the surface but cannot accumulate to higher levels (Atkins (1994) Physical chemistry. Freeman, New York). The excellent fit of the Langmuir isotherm to the experimental data validates these conditions, and the constants obtained from this analysis were used for comparisons between peptides. As shown in FIG. 7A and summarized in Table 6, both the binding affinity (KA) and the monolayer concentration (NMax) of the various peptides increased with the number of DSS repeats per peptide. Additionally, several variant peptides were tested (FIGS. 7B, 7C, Table 6): a peptide containing a longer side chain at the first position (4ESS (SEQ ID NO:34)), peptides containing a more sterically hindered hydroxyl group at the second and third positions (4DTT (SEQ ID NO:36), 4NTT (SEQ ID NO:38), 4ETT (SEQ ID NO:37)), peptides lacking a charged group at the first position (4NSS (SEQ ID NO:35), 8ASS (SEQ ID NO:26)), and peptides lacking hydroxyl groups at the second and third positions (DAA-8 (SEQ ID NO:40), 8NAA (SEQ ID NO:41)).

[2] = Binding of labeled peptides to carious lesions in teeth (CLSM); parameters: species or system human; conditions: labeled peptide, settings optimized per sample
Description: Sections of human teeth containing obvious carious lesions, which consist of demineralized enamel, were polished and exposed to 5(6)-carboxyfluorescein-labeled DSS peptides and variants. The sections were washed extensively and imaged by CLSM using blue laser illumination (A=488 nm) and a FITC emission filter, with microscope and camera settings adjusted for each sample to optimize the signal detected from each peptide. The images were examined to identify the relative levels of peptide binding in healthy versus carious tissue. […] Given their ability to remineralize at sites of enamel degradation, they can also be used to initiate remineralization at sites of enamel degradation such as caries or injury sites without causing inappropriate nucleation on healthy tissue surfaces.

[3] = Tissue specific binding of labeled peptides to sections of human teeth (CLSM); conditions: 5(6)-carboxyfluorescein-labeled peptide, ten minutes; for level of binding (staining) to tooth surfaces: identical settings
Description: In order to investigate the tissue specificity of DSS peptide binding to tooth tissue, sections of human teeth were exposed to DSS peptides and variants, then imaged by CLSM. The peptides utilized for these experiments were 8DSS (SEQ ID NO:33), 8ASS (SEQ ID NO:26), 8DAA (SEQ ID NO:40), 8NAA (SEQ ID NO:41), 4DSS (SEQ ID NO:31), 4ESS (SEQ ID NO:34), 4NSS (SEQ ID NO:35), 4DTT (SEQ ID NO:36), 4ETT (SEQ ID NO:37), 4NTT (SEQ ID NO:38), and 6DSS (SEQ ID NO:32). Sagittal sections of human teeth extracted during normal clinical practice were polished and then incubated for ten minutes in a solution of the appropriate 5(6) carboxyfluorescein-labeled peptide (12.5pM) containing 10 mM NaCl and 50 mM HEPES, pH 7.0. Control samples were prepared without peptide. Samples were washed extensively after treatment and imaged by CLSM using blue laser illumination (A=488 nm) and a FITC emission filter, with identical camera and microscope settings for each sample. For each section, multiple scans were collected and assembled in an automated mode to generate panels of images representing an area of 13×13 mm, sufficient in most cases to encompass the whole section. […] Significant binding was also seen to the edges of the pulp cavity.

Row | Substance | Nmax (maximum monolayer surface concentration) [1] | KA (binding affinity for HA) [1] | effect of sequence variation on binding affinity (KA) relative to DSS peptide of same size ([1]; in words) | surface binding density relative to unphosphorylated peptide ([1]; in words) | strength of staining of carious lesions [2] | level of binding (staining) to tooth surfaces [3] | specificity of binding to carious lesions versus healthy enamel [2] | effect of sequence variation on binding affinity (KA) relative to DSS peptide of same size ([1]; in words, listed as DAA8) | effect of sequence variation on binding affinity (KA) relative to DSS peptide of same size ([1]; in words, listed as DAA-8) | tissue pattern of binding in the tooth section [3] | HA binding activity ([1]; in words)
1 | 4DS(P)S: phosphorylated DSS repeat peptide of the same size as 4DSS, SEQ ID NO:4 (D[pS]SD[pS]SD[pS]SD[pS]S) | 1.2 × 10^−7 ± 5 × 10^−9 mol/m^2 | 83,000 ± 9,000 M^−1 | did not lead to a significant change in binding affinity | large increase in the surface binding density | – | – | – | – | – | – | –
2 | 4NAA: printed once with SEQ ID NO:44; not among the synthesized peptides, probably a misprint (NAANAANAANAA; synthetic calcium-binding peptide 4NAA) | – | – | – | – | exceptionally strong staining of carious lesions | – | – | – | – | – | –
3 | 5DSS: peptide of five Asp-Ser-Ser repeats, SEQ ID NO:22 (DSSDSSDSSDSSDSS; synthetic calcium-binding peptide 5DSS, (DSS)-5) | 9.2 × 10^−8 ± 2 × 10^−9 mol/m^2 | 148,000 ± 14,000 M^−1 | – | – | – | – | – | – | – | – | –
4 | ASS ASS ASS ASS ASS ASS ASS ASS (ASSASSASSASSASSASSASSASS; synthetic calcium-binding peptide 8ASS) | – | – | significant loss of binding affinity | – | exceptionally strong staining of carious lesions | lower levels of binding | highly specific binding to carious lesions | – | – | – | –
5 | DAA DAA DAA DAA DAA DAA DAA DAA (DAADAADAADAADAADAADAADAA; synthetic calcium-binding peptide 8DAA) | 6.0 × 10^−8 ± 6 × 10^−9 mol/m^2 | 310,000 ± 74,000 M^−1 | – | – | exceptionally strong staining of carious lesions | – | highly specific binding to carious lesions | little observable effect | within experimental error of the KA for 8DSS | primary binding to the root tip dentin and cortical enamel | –
6 | DSS DSS (DSSDSS; synthetic calcium-binding peptide 2DSS) | 2 × 10^−8 ± 5 × 10^−9 mol/m^2 | 57,000 ± 24,000 M^−1 | – | – | – | – | – | – | – | – | –
7 | DSS DSS DSS DSS (DSSDSSDSSDSS; synthetic calcium-binding peptide 4DSS) | 5.8 × 10^−8 ± 6 × 10^−9 mol/m^2 | 94,000 ± 26,000 M^−1 | – | – | exceptionally strong staining of carious lesions | – | highly specific binding to carious lesions | – | – | bound primarily to the mantle dentin | –
8 | DTT DTT DTT DTT (DTTDTTDTTDTT; synthetic calcium-binding peptide 4DTT) | 1.3 × 10^−8 ± 1 × 10^−9 mol/m^2 | 161,000 ± 79,000 M^−1 | little observable effect | – | – | sharply reduced levels | – | – | – | binding patterns similar to those of 4DSS | –
9 | ESS ESS ESS ESS (ESSESSESSESS; synthetic calcium-binding peptide 4ESS) | 4.6 × 10^−8 ± 4 × 10^−9 mol/m^2 | 81,000 ± 18,000 M^−1 | – | – | exceptionally strong staining of carious lesions | lower levels of binding | highly specific binding to carious lesions | – | – | – | –
10 | ETT ETT ETT ETT (ETTETTETTETT; synthetic calcium-binding peptide 4ETT) | 8.8 × 10^−8 ± 9 × 10^−9 mol/m^2 | 79,000 ± 25,000 M^−1 | little observable effect | – | – | sharply reduced levels | highly specific binding to carious lesions | – | – | binding patterns similar to those of 4DSS | –
11 | NAANAANAANAANAANAANAANAA [8NAA] | – | – | – | – | – | very little binding to any healthy tissue | highly specific binding to carious lesions | – | – | did bind somewhat to a carious lesion | near-total loss of binding activity
12 | NSS NSS NSS NSS (NSSNSSNSSNSS; synthetic calcium-binding peptide 4NSS) | 3.0 × 10^−8 ± 1 × 10^−9 mol/m^2 | 16,000 ± 4,000 M^−1 | significant loss of binding affinity | – | – | lower levels of binding | highly specific binding to carious lesions | – | – | – | –
13 | NTT NTT NTT NTT (NTTNTTNTTNTT; synthetic calcium-binding peptide 4NTT) | 5.8 × 10^−8 ± 2 × 10^−8 mol/m^2 | 17,000 ± 7,000 M^−1 | significant loss of binding affinity | – | – | very low levels of binding to the healthy tooth tissue | – | – | – | strong binding to a fragment of periodontal bone | near-total loss of binding activity
